Reference: patent publication US11917959B2, “Multi-ear system to enhance monocot plant yield” (Monsanto Technology LLC, priority 2015, dated 2024)

How the values were obtained:
Type in all cases: in vivo
[1] = system: diploid maize plants of a common inbred line; assay: Tiller induction in diploid maize (Example 6)
Protocol: Diploid maize plants of a common inbred line were subjected to a tiller induction treatment comprising drenching the soil surrounding the roots with 100 mL of a 2.5% PBZ solution (v/v; 0.4% of active ingredient) approximately one week after germination and then allowed to grow to sexual maturity in 10-inch pots a greenhouse. A control group of plants were grown under identical circumstances except that they were not subjected to the tiller induction treatment.
Three treatment groups were then formed from the tillers: tillers of the “Co-hab” treatment were allowed to continue growing in the same pot with the mother plant; those of the “-Mother” treatment also remained in the same pot, but the mother plant was removed from the pot; and those of the “Transplanted” treatment group were transplanted from the pot containing the mother plant into separate 10-inch pots, one plant per pot. Any naturally-occurring tillers produced by the control group were allowed to grow in the same pot as the mother plant, similar to the co-hab treatment. All plants were allowed to grow to sexual maturity and self-pollinated when silks and tassels formed. When seed set was complete, the average total number of seeds produced by all plants deriving from the same mother plant seed were counted and plotted in FIG. 3.

haploid mother plant = assay: Tiller induction in doubled haploid maize (Example 7)
Protocol: A haploid mother plant will be subjected to doubling treatment and thereafter planted in a pot, the soil surrounding the roots drenched with 100 mL of 2.5% of paclobutrazol, and then tended standard maize greenhouse growing conditions for several days. […] One of the resulting daughter tiller plants can be separated from the mother plant, transplanted into a separate pot, and grown via standard greenhouse management procedures to eventually recover a daughter plant with normal haploid morphology.

[2] = system: DH0 maize plants, Germplasm A; assay: Doubling efficiency after co-dominant ear induction (Example 2); details: for DE04 doubling efficiency / DE20 doubling efficiency / DE30 doubling efficiency / DE50 doubling efficiency: Germplasm A DH0, 60 mL 2.5% PBZ
Excerpt: An F1 hybrid-derived haploid induction population derived from female inbred maize plant Germplasm A was germinated in soil and tended in standard greenhouse maize growing conditions for approximately seven days. Seedlings were then subjected to a bulk colchicine-based chromosome doubling treatment as described above. Following treatment, seedlings were transplanted into pots and tended in a greenhouse at standard greenhouse maize growing conditions to recover.
Twenty-nine days after the colchicine doubling treatment, 77 of the DH0 seedlings were subjected to a co-dominant ear induction treatment comprising the addition of 60 mL of 2.5% PBZ (v/v) in water, which was poured into the soil surrounding the roots of each plant. The seedlings were then tended in standard greenhouse maize growing conditions until they flowered, at which time each plant that produced pollen was self-pollinated. After approximately 3-4 weeks, ears were harvested and the kernels (DH1 seeds) that formed on the treated DH0 plants were counted to determine doubling efficiencies.
Doubling efficiencies (DE) were calculated under four different constraints, depending on the minimum number of kernels an ear had to produce in order to even be included in the calculation. DE04 represents the portion of all the doubled DH0 plants that produced a total of at least four seeds when all ears were considered. DE20 represents the portion of all the doubled DH0 plants that produced a total of at least 20 kernels when all ears were considered. Similarly, DE30 represents the portion of doubled DH0 plants that produced a total of at least 30 kernels when all ears were considered, and DE50 represents the portion of doubled DH0 plants that produced a total of at least 50 kernels when all ears were considered.
Furthermore, the above doubling efficiencies were calculated once by considering only the kernels that formed on the primary ear of each plant (Ear1), once by considering only the kernels that formed on the primary and secondary ear of each plant (Ear2), once by considering only the kernels that formed on the primary, secondary, and tertiary ear of each plant (Ear3), and finally by considering all the kernels that formed on all the ears of each plant (Earall).

[3] = system: maize inbred lines Germplasm A and LH244; assay: Co-dominant ear induction in diploid maize inbreds (Example 5); details: for Ave. Ears Per Plant / Ave. Total Kernels Per Plant: Treated
Protocol: Seeds of maize inbred lines Germplasm A and LH244 were planted in soil, germinated, and then transplanted to 10-inch pots after approximately one week, one seedling per pot. The plants were subjected to a co-dominant ear induction treatment at the V8 stage comprising drenching the soil surrounding the roots of each plant with 50 mL of a 2.5% PBZ solution (v/v; 0.4% of active ingredient). The plants were tended in a greenhouse until sexual maturity, then they were self-pollinated. When seed set had completed, the number of co-dominant ears, and the total number of kernels, produced by each plant were counted. Control plants for each germplasm were processed in the same way as the treated groups, except that the control plants were not subjected to the co-dominant ear induction treatment.

[4] = Ear 2 (primary and secondary ear)
[5] = Ear 3 (primary, secondary, tertiary ear)
[6] = Germplasm A, 50 mL 2.5% PBZ at V8

## CC(C)(C)[C@@H](O)[C@@H](Cc1ccc(Cl)cc1)n1cncn1 (relative stereo) [PBZ, (±)-(R*, R*)-beta-((4-chlorophenyl)methyl)-alpha-(1,1,-dimethylethyl)-1H-1,2,4,-triazole-1-ethanol]
[1]; 100 mL 2.5% PBZ soil drench
  effect on mother plants: shortened internodes, and induced the mother plants to produce tillers
[1]; transplanted treatment group, 100 mL 2.5% PBZ one week after germination
  number of seeds vs control group: more than twice
Haploid mother plant; 100 mL of 2.5% paclobutrazol
  DH1 seeds yielded by transplanted daughter tiller plant when selfed: several dozen
Haploid mother plant; 100 mL of 2.5% paclobutrazol soil drench after doubling treatment
  effect on mother plant: shortened internodes and increased tiller production
[2]; Ear 1 only
  DE04 doubling efficiency: 71%
  DE20 doubling efficiency: 37%
  DE30 doubling efficiency: 26%
  DE50 doubling efficiency: 23%
[2]; Ear2
  reduction in DE between DE04 and DE20: 22%
[2]; [4]
  DE04 doubling efficiency: 76%
  DE20 doubling efficiency: 59%
  DE30 doubling efficiency: 47%
  DE50 doubling efficiency: 36%
[2]; [5]
  DE04 doubling efficiency: 76%
  DE20 doubling efficiency: 65%
  DE30 doubling efficiency: 58%
  DE50 doubling efficiency: 50%
[2]; Ear All
  DE04 doubling efficiency: 76%
  DE20 doubling efficiency: 68%
  DE30 doubling efficiency: 58%
  DE50 doubling efficiency: 52%
[3]; [6]
  Ave. Ears Per Plant: 8
  Ave. Total Kernels Per Plant: 1677
[3]; LH244, 50 mL 2.5% PBZ at V8
  Ave. Ears Per Plant: 5.1
  Ave. Total Kernels Per Plant: 1126
[3]; both germplasms
  average total kernels per plant and average ears per plant, treated vs control: more than doubling
